Assay results published in patent publication US7943770B2, “Fused quinoline derivative and use thereof” (Takeda Pharmaceutical Company Limited, priority 2004, dated 2011).

These molecules were tested against T1, hNK2 receptor (Homo sapiens, UniProt P21452) (assay: Radio-ligand ([125I]-NKA) receptor binding inhibitory activity using membrane fraction of hNK2 receptor-expressing CHO cell). Conditions: membrane fraction of hNK2 receptor-expressing CHO cells, 25° C., 30 min.
T1 construct: host or cells: CHO cells
T1 sequence (P21452 1-398): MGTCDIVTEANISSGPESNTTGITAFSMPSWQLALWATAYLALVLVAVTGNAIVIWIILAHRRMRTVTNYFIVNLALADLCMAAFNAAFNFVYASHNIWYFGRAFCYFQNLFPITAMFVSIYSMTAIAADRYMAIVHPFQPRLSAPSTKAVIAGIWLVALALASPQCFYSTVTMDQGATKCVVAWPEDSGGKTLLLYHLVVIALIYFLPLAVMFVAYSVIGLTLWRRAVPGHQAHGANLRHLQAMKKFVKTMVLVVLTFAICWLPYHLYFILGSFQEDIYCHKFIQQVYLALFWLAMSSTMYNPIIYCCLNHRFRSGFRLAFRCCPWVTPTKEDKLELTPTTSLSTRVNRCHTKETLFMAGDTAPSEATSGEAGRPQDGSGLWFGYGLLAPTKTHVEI
Outline: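 Inhibition of [125I]-NKA binding ([…] solution added) measured after 30 min at 25 °C using hNK2-CHO membrane fraction (20 μg/mL suspension) in pH 7.4 Tris buffer containing MnCl2, BSA and protease inhibitors. Filter-bound counts read; activity calculated as fraction of specific binding, non-specific defined with unlabeled NKA.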

Compound | IC50
COC[C@@H]1Nc2ccccc2[C@H]2[C@@H]1CCN2C(=O)[C@H]1CCCC[C@H]1NC(=O)c1ccc2[nH]c(C(F)(F)F)nc2c1 [Example 282, N-((1R,2S)-2-{[(3aR,4R,9bR)-4-(Methoxymethyl)-2,3,3a,4,5,9b-hexahydro-1H-pyrrolo[3,2-c]quinolin-1-yl]carbonyl}cyclohexyl)-2-(trifluoromethyl)-1H-benzimidazole-5-carboxamide] | < 10 nM
COC[C@@H]1Nc2ccccc2[C@H]2[C@@H]1CCN2C(=O)[C@H]1CCCC[C@H]1NC(=O)c1ccc(N2CCOCC2)nc1 [Example 286, N-((1R,2S)-2-{[(3aR,4R,9bR)-4-(Methoxymethyl)-2,3,3a,4,5,9b-hexahydro-1H-pyrrolo[3,2-c]quinolin-1-yl]carbonyl}cyclohexyl)-6-morpholin-4-ylnicotinamide] | < 10 nM
COC[C@@H]1Nc2ccccc2[C@H]2[C@@H]1CCN2C(=O)[C@H]1CCCC[C@H]1NC(=O)c1ccc(-n2ccnc2C)nc1 [Example 287, N-((1R,2S)-2-{[(3aR,4R,9bR)-4-(Methoxymethyl)-2,3,3a,4,5,9b-hexahydro-1H-pyrrolo[3,2-c]quinolin-1-yl]carbonyl}cyclohexyl)-6-(2-methyl-1H-imidazol-1-yl)nicotinamide] | < 10 nM
COC[C@@H]1Nc2ccccc2[C@H]2[C@@H]1CCN2C(=O)[C@H]1CCCC[C@H]1NC(=O)Nc1ccc(N2CCOCC2)nc1 [Example 289, N-((1R,2S)-2-{[(3aR,4R,9bR)-4-(Methoxymethyl)-2,3,3a,4,5,9b-hexahydro-1H-pyrrolo[3,2-c]quinolin-1-yl]carbonyl}cyclohexyl)-N′-(6-morpholin-4-ylpyridin-3-yl)urea] | < 10 nM
COC[C@@H]1Nc2ccccc2[C@H]2[C@@H]1CCN2C(=O)[C@H]1CCCC[C@H]1NC(=O)c1ccc(-c2cnco2)cc1 [Example 290, N-((1R,2S)-2-{[(3aR,4R,9bR)-4-(Methoxymethyl)-2,3,3a,4,5,9b-hexahydro-1H-pyrrolo[3,2-c]quinolin-1-yl]carbonyl}cyclohexyl)-4-(1,3-oxazol-5-yl)benzamide] | < 1 nM
COC[C@@H]1Nc2ccccc2[C@H]2[C@@H]1CCN2C(=O)[C@H]1CCCC[C@H]1NC(=O)c1ccc(N2CCSCC2)cc1 [Example 291, N-((1R,2S)-2-{[(3aR,4R,9bR)-4-(Methoxymethyl)-2,3,3a,4,5,9b-hexahydro-1H-pyrrolo[3,2-c]quinolin-1-yl]carbonyl}cyclohexyl)-4-thiomorpholin-4-ylbenzamide] | < 1 nM
O=C(Nc1ccccc1)N[C@@H]1CCCC[C@@H]1C(=O)N1CC[C@@H]2[C@H](c3ncc[nH]3)Nc3ccccc3[C@@H]21 [Example 293, N-((1R,25)-2-{[(3aR,4R,9bR)-4-(1H-Imidazol-2-yl)-2,3,3a,4,5,9b-hexahydro-1H-pyrrolo[3,2-c]quinolin-1-yl]carbonyl}cyclohexyl)-N′-phenylurea] | < 1 nM
O=C(/C=C/c1ccc(C(F)(F)F)cc1)N[C@@H]1CCCC[C@@H]1C(=O)N1CC[C@@H]2[C@H](c3ncc[nH]3)Nc3ccccc3[C@@H]21 [Example 294, (2E)-N-((1R,2S)-2-{[(3aR,4R,9bR)-4-(1H-Imidazol-2-yl)-2,3,3a,4,5,9b-hexahydro-1H-pyrrolo[3,2-c]quinolin-1-yl]carbonyl}cyclohexyl)-3-[4-(trifluoromethyl)phenyl]acrylamide] | < 1 nM
CCNC(=O)N[C@@H]1CCCC[C@@H]1C(=O)N1CC[C@@H]2[C@H](c3ncc[nH]3)Nc3ccccc3[C@@H]21 [Example 295, N-Ethyl-N′-((1R,2S)-2-{[(3aR,4R,9bR)-4-(1H-imidazol-2-yl)-2,3,3a,4,5,9b-hexahydro-1H-pyrrolo[3,2-c]quinolin-1-yl]carbonyl}cyclohexyl)urea] | < 10 nM
O=C(N[C@@H]1CCCC[C@@H]1C(=O)N1CC[C@@H]2[C@H](c3ncc[nH]3)Nc3ccccc3[C@@H]21)c1ccc(C(F)(F)F)cc1 [Example 296, N-((1R,2S)-2-{[(3aR,4R,9bR)-4-(1H-Imidazol-2-yl)-2,3,3a,4,5,9b-hexahydro-1H-pyrrolo[3,2-c]quinolin-1-yl]carbonyl}cyclohexyl)-4-(trifluoromethyl)benzamide] | < 1 nM
O=C(/C=C/c1ccc(F)cc1)N[C@@H]1CCCC[C@@H]1C(=O)N1CC[C@@H]2[C@H](c3ncc[nH]3)Nc3ccccc3[C@@H]21 [Example 297, (2E)-3-(4-Fluorophenyl)-N-((1R,2S)-2-{[(3aR,4R,9bR)-4-(1H-imidazol-2-yl)-2,3,3a,4,5,9b-hexahydro-1H-pyrrolo[3,2-c]quinolin-1-yl]carbonyl}cyclohexyl)acrylamide] | < 1 nM
O=C(Nc1ccc(F)cc1)N[C@@H]1CCCC[C@@H]1C(=O)N1CC[C@@H]2[C@H](c3ncc[nH]3)Nc3ccccc3[C@@H]21 [Example 298, N-(4-Fluorophenyl)-N′-((1R,2S)-2-{[(3aR,4R,9bR)-4-(1H-imidazol-2-yl)-2,3,3a,4,5,9b-hexahydro-1H-pyrrolo[3,2-c]quinolin-1-yl]carbonyl}cyclohexyl)urea] | < 1 nM
CCCCNC(=O)N[C@@H]1CCCC[C@@H]1C(=O)N1CC[C@@H]2[C@H](c3ncc[nH]3)Nc3ccccc3[C@@H]21 [Example 299, N-Butyl-N′-((1R,2S)-2-{[(3aR,4R,9bR)-4-(1H-imidazol-2-yl)-2,3,3a,4,5,9b-hexahydro-1H-pyrrolo[3,2-c]quinolin-1-yl]carbonyl}cyclohexyl)urea] | < 1 nM
O=C(/C=C/c1cccs1)N[C@@H]1CCCC[C@@H]1C(=O)N1CC[C@@H]2[C@H](c3ncc[nH]3)Nc3ccccc3[C@@H]21 [Example 300, (2E)-N-((1R,2S)-2-{[(3aR,4R,9bR)-4-(1H-Imidazol-2-yl)-2,3,3a,4,5,9b-hexahydro-1H-pyrrolo[3,2-c]quinolin-1-yl]carbonyl}cyclohexyl)-3-thien-2-ylacrylamide] | < 1 nM
O=C(N[C@@H]1CCCC[C@@H]1C(=O)N1CC[C@@H]2[C@H](c3ncc[nH]3)Nc3ccccc3[C@@H]21)c1ccc(F)c(Cl)c1 [Example 301, 3-Chloro-4-fluoro-N-((1R,2S)-2-{[(3aR,4R,9bR)-4-(1H-imidazol-2-yl)-2,3,3a,4,5,9b-hexahydro-1H-pyrrolo[3,2-c]quinolin-1-yl]carbonyl}cyclohexyl)benzamide] | < 1 nM
O=C(N[C@@H]1CCCC[C@@H]1C(=O)N1CC[C@@H]2[C@H](c3ncc[nH]3)Nc3ccccc3[C@@H]21)c1ccccc1F [Example 302, 2-Fluoro-N-((1R,2S)-2-{[(3aR,4R,9bR)-4-(1H-imidazol-2-yl)-2,3,3a,4,5,9b-hexahydro-1H-pyrrolo[3,2-c]quinolin-1-yl]carbonyl}cyclohexyl)benzamide] | < 1 nM

The remaining lines, values ahead:

IC50 | Compound
< 1 nM | COC[C@@H]1Nc2ccccc2[C@H]2[C@@H]1CCN2C(=O)[C@H]1CCCC[C@H]1NC(=O)c1ccc2[nH]c(C)nc2c1 [Example 279, N-((1R,2S)-2-{[(3aR,4R,9bR)-4-(Methoxymethyl)-2,3,3a,4,5,9b-hexahydro-1H-pyrrolo[3,2-c]quinolin-1-yl]carbonyl}cyclohexyl)-2-methyl-1H-benzimidazole-5-carboxamide]
< 1 nM | COC[C@@H]1Nc2ccccc2[C@H]2[C@@H]1CCN2C(=O)[C@H]1CCCC[C@H]1NC(=O)c1c[nH]c(-c2ccccc2)n1 [Example 280, N-((1R,2S)-2-{[(3aR,4R,9bR)-4-(Methoxymethyl)-2,3,3a,4,5,9b-hexahydro-1H-pyrrolo[3,2-c]quinolin-1-yl]carbonyl}cyclohexyl)-2-phenyl-1H-imidazole-4-carboxamide]
< 1 nM | COC[C@@H]1Nc2ccccc2[C@H]2[C@@H]1CCN2C(=O)[C@H]1CCCC[C@H]1NC(=O)c1ccc(-c2ncc[nH]2)cc1 [Example 281, 4-(1H-imidazol-2-yl)-N-((1R,2S)-2-{[(3aR,4R,9bR)-4-(methoxymethyl)-2,3,3a,4,5,9b-hexahydro-1H-pyrrolo[3,2-c]quinolin-1-yl]carbonyl}cyclohexyl)benzamide]
< 1 nM | COC[C@@H]1Nc2ccccc2[C@H]2[C@@H]1CCN2C(=O)[C@H]1CCCC[C@H]1NC(=O)Nc1ccc(C#N)c(C)c1 [Example 283, N-(4-Cyano-3-methylphenyl)-N′-((1R,2S)-2-{[(3aR,4R,9bR)-4-(methoxymethyl)-2,3,3a,4,5,9b-hexahydro-1H-pyrrolo[3,2-c]quinolin-1-yl]carbonyl}cyclohexyl)urea]
< 1 nM | COC[C@@H]1Nc2ccccc2[C@H]2[C@@H]1CCN2C(=O)[C@H]1CCCC[C@H]1NC(=O)Nc1ccc(-n2cccn2)cc1 [Example 284, N-((1R,2S)-2-{[(3aR,4R,9bR)-4-(methoxymethyl)-2,3,3a,4,5,9b-hexahydro-1H-pyrrolo[3,2-c]quinolin-1-yl]carbonyl}cyclohexyl)-N′-[4-(1H-pyrazol-1-yl)phenyl]urea]
< 1 nM | COC[C@@H]1Nc2ccccc2[C@H]2[C@@H]1CCN2C(=O)[C@H]1CCCC[C@H]1NC(=O)Nc1ccc(OC)c(C#N)c1 [Example 285, N-(3-Cyano-4-methoxyphenyl)-N′-((1R,2S)-2-{[(3aR,4R,9bR)-4-(methoxymethyl)-2,3,3a,4,5,9b-hexahydro-1H-pyrrolo[3,2-c]quinolin-1-yl]carbonyl}cyclohexyl)urea]
< 1 nM | COC[C@@H]1Nc2ccccc2[C@H]2[C@@H]1CCN2C(=O)[C@H]1CCCC[C@H]1NC(=O)c1ccc(-n2cccn2)nc1 [Example 288, N-((1R,2S)-2-{[(3aR,4R,9bR)-4-(Methoxymethyl)-2,3,3a,4,5,9b-hexahydro-1H-pyrrolo[3,2-c]quinolin-1-yl]carbonyl}cyclohexyl)-6-(1H-pyrazol-1-yl)nicotinamide]
